The values that follow come from article PMC6271266, “Synthesis and Biological Evaluation of Liguzinediol Mono- and Dual Ester Prodrugs as Promising Inotropic Agents” (Molecules, 2014).

A short description of data set [1]: Capacity factor (k') by HPLC (lipophilic index). It counts as physicochemical. As to conditions: n = 3, mean ± SD. The protocol:
According to the method described in the literature, the capacity factor (k') of the prodrugs was determined using high-performance liquid chromatography (HPLC). Retention times of each prodrug and LZDO were measured and k' values were calculated from the following equation: k' = (t' − t0)/t0(1) where t0 is the retention time of the uracil and t' is the retention time of each compound. All experiments were conducted in triplicate.

A short description of data set [2]: Hydrolysis (chemical stability) in phosphate buffer pH 7.4. Conditions: buffer solution pH 7.4, 37 °C, n = 3, mean ± SD. It counts as physicochemical. As to the method: The chemical stabilities of the target products were analyzed by high-performance liquid chromatography (HPLC) and were calculated as the amount unchanged within 24 h in buffer solutions at pH 7.4.
Methanolic stock solutions of each compound were added to 10 mL of 50 mM phosphate buffer solution (pH 7.4). The resulting solution was placed in a constant shaker bath set at 37 °C and after 24 h, a 10 μL aliquot of reaction solution was taken and analyzed by HPLC [35]. All experiments were performed in triplicate.

Data set [3] in a line: Metabolism in human liver microsomes. Type of data set: in vitro ADME. As to conditions: for half-life: human, human liver microsomes, pH 7.4, read-out: t1/2 (Human Liver Microsomes) (converted); for bioconversion to LZDO or monoester in human liver microsomes: result in words. The protocol:
(§1) For a rationally designed prodrug intended to prolong the half-life of the active moiety, the metabolic lability should be sufficient and continuous. Preliminary metabolic stability was assessed in human plasma and human liver microsomes The profile of disappearance of each prodrug followed a pseudo-first-order trend, and half-lives were calculated from the linear slopes of logarithmic plots of remaining prodrug over time.
To the human liver microsomes which were dissolved in 50 mM phosphate buffer solution (pH 7.4) to a concentration of 1 mg/mL, a prodrug (100 μL, initial concentrations were 4.20–9.85 mM) in methanol and NADPH (100 μL, 1 mM) also in 50 mM phosphate buffer solution (pH 7.4) were successively added to initiate the incubation. The solution was then incubated at 37 °C and the subsequent procedures of sample preparations were similar to those in Section 3.5. All experiments were performed at least in triplicate.
(§2) Separation and quantitation of the releasing LZDO and the prodrugs were carried out using a HPLC procedure. The HPLC system was equipped with a Waters 2695 gradient pump, a Waters 2487 UV detector at 278 nm, and an Empower 2 data station. The analytical column for in vitro samples was a Boston Green ODS-AQ column (4.6 mm × 50 mm, 5 μm) and the injection volume was 10 μL. Gradient elution methods were performed with a flow rate at 1.0 mL/min on Boston Green ODS-AQ column maintained at 30 °C. The percentage of mobile phase consisting of methanol and water was varied to elute analytes (see Supplementary Material for details of the HPLC elution). The methods provided rapid analysis for quantifying LZDO, prodrug and internal standard simultaneously. When qualifying the releasing amount of LZDO, separate standard curves under specific analytic condition were prepared by spiking a known amount of LZDO and internal standard in blank matrix. Disappearance of each prodrug from in vitro samples was analyzed by taking the ratio of peak areas detected at sampling time to that at initial time. As for in vivo pharmacokinetic analysis, determinations only referred to LZDO and an Ultimate XB-C18 column (3.0 mm × 50 mm, 3 μm) with an injection volume of 2 μL was used. The flow rate on Ultimate XB-C18 column was 0.4 mL/min with a column temperature of 30 °C. The mobile phase consisted of methanol (A) and water (B). The initial mobile phase composition was 4% A/96% B and maintained for 8 min. After that the mobile phase composition was changed to 80% A/20% B over 4 min and held at that ratio for an additional 4 min. The mobile phase was returned to initial composition over 1 min and re-equilibrated for 3 min. For in vivo analytical samples, a separate standard curve was prepared using blank rat plasma and ranged from 0.39 to 50 μg/mL.

Data set [4] is described as follows: Hydrolysis in 80% human plasma. Type of data set: in vitro ADME. Conditions: for half-life: human, 80% human plasma, pH 7.4, read-out: t1/2 (80% Human Plasma) (converted); for bioconversion to LZDO or monoester in human plasma: result in words. As to the method: as §1
A prodrug (100 μL, initial concentrations were 4.20–9.85 mM) in methanol was added to human plasma (1000 μL) diluted to 80% with 50 mM phosphate buffer solution (pH 7.4) and was placed in a constant shaker bath set. The resulting solution was subsequently incubated at 37 °C and at appropriate time intervals methanol (1 mL) containing caffeine as internal standard was added in order to deproteinize the serum. The sample was vortexed for 3 min, and then centrifuged for 5 min at 5000 g. 900 μL of clear supernatant was withdrawn and evaporated to remove the solvent. Before analysis by RP-HPLC, the samples were dissolved in methanol (200 μL), vortexed again for 5 min, and then centrifuged for 5 min at 12,000 g. All experiments were performed at least in triplicate.
as §2

Data set [5] can be described thus: Partition coefficient, n-octanol / 50 mM phosphate buffer pH 7.4. As to conditions: 1-octanol/phosphate buffer (7.4) at 25 °C, n = 3, mean ± SD; for logP: n-octanol/50 mM phosphate buffer, pH 7.4. It counts as physicochemical. The protocol: Partitioning studies were performed with n-octanol and 50 mM phosphate buffer solution (pH 7.4) following standard procedures described in the literature. All experiments were conducted in triplicate, and the determination of LZDO was also carried out as a reference. Meanwhile, ChemBioDraw Ultra 12.0 was used to determine the calculated log p values as reference to the observed values.

Data set [6] in a line: Aqueous solubility in 50 mM phosphate buffer pH 7.4. Type of data set: physicochemical. As to conditions: for solubility at 24 h: thermodynamic from solid. As to the method: An excess of each prodrug was added to 5 mL of 50 mM phosphate buffer solution (pH 7.4), and shaken at 25 °C in a water bath to establish equilibration for 24 h. After the equilibration, the samples were filtered through a membrane filter (0.45 μm) and analyzed by HPLC. All experiments were conducted in triplicate.

The mark [7] stands for this setting: prodrug disappearance, from pseudo-first-order rate constant.
The mark [8] stands for this setting: aqueous buffer, 50 mM phosphate buffer pH 7.4, 25 °C, 24 h, n = 3, mean ± SD.

≈ marks a conversion by molar mass, not a printed value.

With “3,6-Dimethyl-5-hydroxy-2-octadecanoyloxymethylpyrazine [Compound M18]”, the “Capacity Factor” value in data set [1] came out at 1.055 ± 0.061. Besides, the “% Unchanged at 24 h (pH 7.4)” value in data set [2] is recorded as 98.2 ± 0.6%. Also, the “% Max of LZDO Released (Human Liver Microsomes)” value in data set [3] (maximum percentage of liguzinediol released at 6 h incubation, 37 °C, NADPH) was 15.9 ± 1.2%. In data set [3] (setting [7]), the “t1/2 (Human Liver Microsomes)” value was 9.5 ± 0.9 h. For the same compound, the “% Max of LZDO Released (80% Human Plasma)” value in data set [4] (maximum percentage of liguzinediol released at 6 h incubation, 37 °C) stood at 15.6 ± 1.6%. Further, the “t1/2 (80% Human Plasma)” value in data set [4] (setting [7]) was found to be 9.6 ± 1.1 h. In data set [5], the Log P (in general, a log measure of how a compound divides between an organic and an aqueous phase) was 3.38 ± 0.20.

Turning to `Cc1nc(COC(=O)C(C)(C)C)c(C)nc1COC(=O)C(C)(C)C` [Compound D5, 3,6-Dimethyl-2,5-dipivaloyloxymethylpyrazine], the melting point – broadly, the temperature of the solid-liquid transition – was in the range of 80 to 82 °C. The “Capacity Factor” value in data set [1] is 0.364 ± 0.039. The solubility (commonly how much of the substance goes into solution per volume) at 24 h in data set [6] (setting [8]) worked out at 29.9 ± 1.36 µg/mL (≈ 0.0889 mM). Also, the “% Unchanged at 24 h (pH 7.4)” value in data set [2] came out at 96.1 ± 0.2%. The half-life in data set [3] (setting [7]) was 3.2 ± 0.3 h. In data set [4] (setting [7]), the half-life was 3.4 ± 0.4 h. Besides, the logP (commonly the decadic logarithm of the partition coefficient of the neutral form, usually between octanol and water) in data set [5] is 2.5 ± 0.18.

Compound `CCCCCCCCCC(=O)OCc1nc(C)c(COC(=O)CCCCCCCCC)nc1C` [Compound D10, 2,5-Didecanoyloxymethyl-3,6-dimethylpyrazine] had a melting point of 46 to 47 °C. In addition, the “Capacity Factor” value in data set [1] is 1.068 ± 0.057. For the same compound, in data set [2], the “% Unchanged at 24 h (pH 7.4)” value was 98.7 ± 0.4%. Also, the half-life in data set [3] (setting [7]) is 4.1 ± 0.5 h. In addition, in data set [4] (setting [7]), the half-life was 4.2 ± 0.4 h. The same compound displayed a logP in data set [5] of 2.87 ± 0.16.

For the compound `CCCCCCCCCCCC(=O)OCc1nc(C)c(COC(=O)CCCCCCCCCCC)nc1C` [Compound D12, 2,5-Didodecanoyloxymethyl-3,6-dimethylpyrazine], the melting point lay in the range of 55 to 56 °C. Also, the “Capacity Factor” value in data set [1] stood at 1.640 ± 0.032. Also, the “% Unchanged at 24 h (pH 7.4)” value in data set [2] is listed as 99.8 ± 0.5%. The half-life in data set [3] (setting [7]) is 7.9 ± 0.9 h. The half-life in data set [4] (setting [7]) is 7.9 ± 1 h. The logP in data set [5] turned out to be 3.77 ± 0.21.

The compound `CCCCCCCCCCCCCCCC(=O)OCc1nc(C)c(COC(=O)CCCCCCCCCCCCCCC)nc1C` [Compound D16, 2,5-Dihexadecanoyloxymethyl-3,6-dimethylpyrazine] showed a melting point of 74 to 75 °C. Also, the “Capacity Factor” value in data set [1] was 3.911 ± 0.042. For the same compound, in data set [2], the “% Unchanged at 24 h (pH 7.4)” value was “stable ^c”. Besides, in data set [3], the “bioconversion to LZDO or monoester in human liver microsomes” value is “no bioconversion”. The “bioconversion to LZDO or monoester in human plasma” value in data set [4] is “no bioconversion”. For the same compound, the “Log P” value in data set [5] is given as “thoroughly partitioned into n-octanol”.

In turn, `CCCCCCCCCCCCCCCCCC(=O)OCc1nc(C)c(COC(=O)CCCCCCCCCCCCCCCCC)nc1C` [Compound D18, 3,6-Dimethyl-2,5-dioctadecanoyloxymethylpyrazine] gave a melting point of 75 to 76 °C. Also, in data set [1], the “Capacity Factor” value is on record as 6.134 ± 0.084. Besides, the “% Unchanged at 24 h (pH 7.4)” value in data set [2] is reported as “stable ^c”. Besides, the “bioconversion to LZDO or monoester in human liver microsomes” value in data set [3] is recorded as “no bioconversion”. For the same compound, the “bioconversion to LZDO or monoester in human plasma” value in data set [4] is “no bioconversion”. In addition, the “Log P” value in data set [5] was “thoroughly partitioned into n-octanol”.

Turning to `Cc1nc(COC(=O)C(C)(C)C)c(C)nc1CO` [Compound M5, 3,6-Dimethyl-5-hydroxymethyl-2-pivaloyloxymethylpyrazine], the melting point was in the range of 66 to 67 °C. Further, the “Capacity Factor” value in data set [1] amounted to 0.210 ± 0.020. The Solubility (commonly how much of the substance goes into solution per volume) in data set [6] (50 mM phosphate buffer pH 7.4, 25 °C, 24 h, n = 3, mean ± SD) came out at 8000 ± 350 µg/mL (≈ 31.7 mM). Besides, the solubility at 24 h in data set [6] (phosphate buffer, 25 °C, pH 7.4, aqueous buffer, as restated in conclusions) stood at 8000 µg/mL (≈ 31.7 mM). For the same compound, the “% Unchanged at 24 h (pH 7.4)” value in data set [2] is on record as 98.9 ± 0.3%. For the same compound, in data set [3] (setting [7]), the half-life was 5.1 ± 0.2 h. Further, the half-life in data set [4] (setting [7]) was 2.6 ± 0.1 h. For the same compound, in data set [5], the logP came to 1.33 ± 0.1.

In the case of `CCCCCCCCCC(=O)OCc1nc(C)c(CO)nc1C` [Compound M10, 2-Decanoyloxymethyl-3,6-dimethyl-5-hydroxymethylpyrazine], the melting point was 31 to 32 °C. Also, in data set [1], the “Capacity Factor” value is 0.400 ± 0.015. In addition, in data set [6] (setting [8]), the solubility at 24 h was 8.89 ± 0.21 µg/mL (≈ 0.0276 mM). In data set [2], the “% Unchanged at 24 h (pH 7.4)” value is on record as 98.9 ± 0.3%. The half-life in data set [3] (setting [7]) is 2.1 ± 0.6 h. The half-life in data set [4] (setting [7]) is 2.3 ± 0.2 h. The same compound had a logP in data set [5] of 2.48 ± 0.04.

`CCCCCCCCCCCC(=O)OCc1nc(C)c(CO)nc1C` [Compound M12, 3,6-Dimethyl-2-dodecanoyloxymethyl-5-hydroxymethylpyrazine] registered a melting point of 40 to 41 °C. Further, in data set [1], the “Capacity Factor” value stood at 0.514 ± 0.012. The compound also returned a solubility at 24 h in data set [6] (setting [8]) of 2.23 ± 0.11 µg/mL (≈ 0.00636 mM). The “% Unchanged at 24 h (pH 7.4)” value in data set [2] was found to be 99.7 ± 0.2%. The half-life in data set [3] (setting [7]) was 2.2 ± 0.1 h. Besides, the half-life in data set [4] (setting [7]) is 2.6 ± 0.5 h. In data set [5], this compound showed a logP of 3.12 ± 0.15.

For `CCCCCCCCCCCCCCCC(=O)OCc1nc(C)c(CO)nc1C` [Compound M16, 3,6-Dimethyl-2-hexadecanoyloxymethyl-5-hydroxymethylpyrazine], the melting point fell in the range of 60 to 62 °C. Also, the “Capacity Factor” value in data set [1] stood at 0.834 ± 0.012. For the same compound, the “% Unchanged at 24 h (pH 7.4)” value in data set [2] is listed as 99.4 ± 0.4%. The half-life in data set [3] (setting [7]) was 3.3 ± 0.7 h. In addition, in data set [4] (setting [7]), the half-life was 3.3 ± 0.6 h. This compound also returned a logP in data set [5] of 3.25 ± 0.13.

`Cc1nc(CO)c(C)nc1CO` [Liguzinediol, 2,5-Dihydroxymethyl-3,6-dimethylpyrazine]: in data set [1], the “Capacity Factor” value was 0.100 ± 0.004. In data set [6] (setting [8]), this compound had a solubility at 24 h of 224000 µg/mL (≈ 1330 mM). This compound came in with a logP in data set [5] of -1.12 ± 0.11.
